Consider 8 compounds from PubChem BioAssay (NCI).

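1) Cells in 96-well plates. 2) Compound, 48 h, 5 concentrations. 3) Linear interpolation between surrounding doses. 4) Unreached endpoint = highest concentration. The concentration for 50% growth inhibition is given as GI50. TGI marks complete inhibition of growth.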

Among the test systems are A549 NSCLC; NCI-H522 lung; NCI-H226 lung; 786-0 renal; SF-539 CNS; MOLT-4 leukemia; SK-OV-3 ovarian; HOP-62 NSCLC; SN12C renal; EKVX NSCLC.
Holding throughout (assay): DTP human tumour cell line panel, 48 h

By TGI is commonly meant the concentration giving total growth inhibition. In the case of `Cc1c(-c2nc(N)nc(C3CC3)c2C)nc(N)nc1C1CC1`, the total growth inhibition concentration (TGI) with A549 NSCLC, in the experiment on NCI-H522 lung, with NCI-H226 lung, in the experiment with 786-0 renal, in the experiment on SF-539 CNS and in the experiment with MOLT-4 leukemia was > 100 µM throughout. Besides, the TGI with SK-OV-3 ovarian, in the experiment on HOP-62 NSCLC, in the experiment with SN12C renal and with EKVX NSCLC was > 100 µM throughout.

Usually GI50 stands for the concentration at which growth is held to half of that of the control. With `FC(F)(F)c1ccc2c(Nc3cccc(C4CC(c5ccccc5)=NN4c4ccc(Cl)cc4)c3)ccnc2c1` (stereo not drawn), the GI50 is 10.7 µM in the experiment on A549 NSCLC; 6.16 µM with NCI-H522 lung; 15 µM in the experiment on NCI-H226 lung; 2.73 µM with 786-0 renal; 4.78 µM in the experiment on SF-539 CNS; 3.6 µM with MOLT-4 leukemia. The GI50 was 11.2 µM in the experiment on SK-OV-3 ovarian, 2.96 µM with SN12C renal and 10.9 µM in the experiment on EKVX NSCLC. Moreover, the TGI with A549 NSCLC is 44.8 µM; in the experiment with NCI-H522 lung it was 38.6 µM; in the experiment with NCI-H226 lung, 36.2 µM; in the experiment with 786-0 renal it was 10.7 µM; with SF-539 CNS, 19.5 µM; in the experiment with MOLT-4 leukemia, 19.5 µM. The TGI in the experiment on SK-OV-3 ovarian turned out to be 36.4 µM; in the experiment with SN12C renal, 14.6 µM; in the experiment with EKVX NSCLC, 59.5 µM.

Regarding `CS(=O)(=O)Nc1ccc(-c2ccc3c(NC(=O)C4CC4)n[nH]c3c2)cc1`, the GI50 with A549 NSCLC was > 25 µM; with NCI-H522 lung it was > 25 µM; in the experiment on NCI-H226 lung, > 14.9 µM; in the experiment with 786-0 renal, > 25 µM; with SF-539 CNS, > 20 µM; in the experiment on MOLT-4 leukemia it was > 15.7 µM. The GI50 in the experiment on SK-OV-3 ovarian is 13.7 µM; in the experiment with HOP-62 NSCLC, > 25000 nM; in the experiment on SN12C renal, > 25 µM; in the experiment on EKVX NSCLC, > 25 µM. In addition, the TGI with A549 NSCLC, in the experiment with NCI-H522 lung, with NCI-H226 lung, in the experiment on 786-0 renal, in the experiment on SF-539 CNS and in the experiment on MOLT-4 leukemia was > 25 µM throughout. Besides, the TGI in the experiment with SK-OV-3 ovarian, with HOP-62 NSCLC, with SN12C renal and with EKVX NSCLC was > 25 µM throughout.

With `Cc1ccc([N+](=O)[O-])c2c(NCCCN(C)C)ccnc12`, the TGI in the experiment with A549 NSCLC was > 100 µM; in the experiment with NCI-H522 lung it was 55.8 µM; in the experiment with NCI-H226 lung, > 100 µM; in the experiment on 786-0 renal, > 100 µM; with SF-539 CNS, > 77 µM; in the experiment with MOLT-4 leukemia, > 100 µM. In addition, the TGI in the experiment with HOP-62 NSCLC, in the experiment on SN12C renal and in the experiment with EKVX NSCLC was > 100 µM throughout.

For the compound `C=CC(=O)N1CCN(c2ncnc3c(F)c(-c4c(O)cccc4F)c(Cl)cc23)CC1`, the GI50 with A549 NSCLC was 18 µM; in the experiment on NCI-H522 lung, 15.6 µM; in the experiment on NCI-H226 lung, 17 µM; in the experiment on 786-0 renal, 11.4 µM; with SF-539 CNS, 7.48 µM; in the experiment with MOLT-4 leukemia it was 7.04 µM. The GI50 in the experiment on HOP-62 NSCLC is 211 nM; in the experiment with SN12C renal, 13.9 µM; in the experiment with EKVX NSCLC it was 15.1 µM. The TGI amounted to 40.7 µM in the experiment on A549 NSCLC; 35.1 µM with NCI-H522 lung; 46.2 µM in the experiment on NCI-H226 lung; 25.4 µM in the experiment on 786-0 renal; 20.5 µM in the experiment with SF-539 CNS; 56.9 µM in the experiment on MOLT-4 leukemia. Further, the TGI came to 20.7 µM with HOP-62 NSCLC, 31.3 µM with SN12C renal and 28.9 µM in the experiment on EKVX NSCLC.

For `CN(C)c1nc(-c2cccs2)n2nc(-c3ccc(Cl)cc3)cc2n1`, the GI50 in the experiment with NCI-H522 lung is > 100 µM; in the experiment on NCI-H226 lung it was 2.73 µM; with 786-0 renal it was 3.93 µM; in the experiment on SF-539 CNS, 25.5 µM; in the experiment on MOLT-4 leukemia, > 100 µM; in the experiment with HOP-62 NSCLC it was 2270 nM. The GI50 is > 100 µM in the experiment on SN12C renal and 4.38 µM with EKVX NSCLC. The total growth inhibition concentration (TGI) in the experiment with NCI-H522 lung is > 100 µM; in the experiment on NCI-H226 lung, > 100 µM; with 786-0 renal, > 100 µM; in the experiment on SF-539 CNS it was > 100 µM; in the experiment with MOLT-4 leukemia, > 100 µM; in the experiment with HOP-62 NSCLC, 6.53 µM. Moreover, the TGI in the experiment with SN12C renal and in the experiment with EKVX NSCLC was > 100 µM in each case.

For the compound `COc1ccccc1C(=O)c1ccc2ccccc2c1`, the TGI in the experiment on A549 NSCLC is > 100 µM; with NCI-H522 lung, 21.5 µM; in the experiment on NCI-H226 lung it was > 100 µM; in the experiment with 786-0 renal it was > 100 µM; in the experiment with SF-539 CNS, 25.8 µM; with MOLT-4 leukemia, 34 µM. Moreover, the concentration for total growth inhibition (TGI) was > 100 µM in the experiment with HOP-62 NSCLC, > 100 µM in the experiment on SN12C renal and 77.8 µM in the experiment on EKVX NSCLC.

Regarding `Clc1cc(Cl)c2c(Cl)cc(Cl)c3c2c1N=S=N3`, the TGI with A549 NSCLC, in the experiment on NCI-H522 lung, in the experiment on NCI-H226 lung, in the experiment on 786-0 renal, in the experiment with SF-539 CNS and in the experiment with MOLT-4 leukemia was > 100 µM throughout. The TGI in the experiment with SK-OV-3 ovarian and in the experiment with EKVX NSCLC was > 100 µM in each case.
